Experimental data from patent US11311522B1 (Cavion, Inc., priority 2018, dated 2022).

Legend:
[1] = PN003: safety and tolerability; format: in vivo; conditions: for At least 1 adverse event / Disorientation / Dry mouth / Gastrointestinal Disorders / Hallucinations visual / Headache / Insomnia / Nausea / Nervous System Disorders / Psychiatric Disorders / Somnolence / Vivid dreams: Study PN003/Part I and Part II
Description: Additional adverse events, including mood swings, feeling frightened, laughing intermittently, difficulty moving hands, feeling weak, enhanced taste, loss of fine sensation in fingertips, some loss of sensation at skin level (all over body), and out of body feeling, were reported as the day progressed. All adverse events were mild or moderate in severity. Most events began minutes to hours after dosing, and all had resolved by 3 days after dosing. The adverse events that the subject experienced were described as “mood swings” and led to discontinuation of dosing. […] In addition, they reported feeling angry towards another subject, feeling dizzy/drunk, intense daydreams, shaking/trembling, and sweating. All adverse events were mild in severity, and all were considered possibly related to the study drug. The last dose of CX-8998 was not administered. All adverse events resolved after discontinuation of the study drug. […] The subject experienced nervous system-related events of gradually increasing severity, including lightheadedness, euphoria, tiredness, headache, hard to follow thoughts, vulnerable thoughts and emotions, feeling flat, and weak in the muscles. All adverse events were mild or moderate in severity, and all were considered possibly related to the study drug. The last dose of CX-8998 was not administered. All adverse events resolved after discontinuation of the study drug. […] Oxygen saturation and serum glucose levels were within normal limits, but the subject's blood pressure was low at the time of the event (76/43 mmHg, with a pulse rate of 59 bpm). […] The event was judged by the investigator as moderate in severity and as probably related to the study drug. The subject was discontinued from the study because of ongoing nausea and feelings of weakness and lethargy. […] The subject was not on telemetry at the time. The investigator considered the event to be a vasovagal reaction (moderate in severity) and assessed the event as unrelated to the study drug. The subject continued in the study and completed the planned 7 days of treatment. […] A washout period of at least 2 weeks separated the treatment periods. […] The PSG recordings were initiated at each subject's habitual bedtime and continued for 8 hours. In addition to PSG recordings, subjects were evaluated on the next day with subjective measures of sleep quality (Leeds Sleep Evaluation Questionnaire) and sleepiness (Karolinska Sleepiness Scale) and with cognitive and motor tasks to assess next-morning residual effects. An interim analysis of the primary endpoint (slow wave activity in the first one-third of sleep) was performed after 24 subjects had completed Part I of the study (Section 5.3.3.1.2). The study was adaptively designed to allow a re-estimation of the sample size after the interim analysis. Based on the results of the interim analysis, the study could be stopped if the efficacy criterion (increase in slow wave activity, p<0.05) or futility criterion (p>0.25) was achieved. If neither criterion was met, a re-estimation of the sample size was specified, with the ability to enroll up to 24 additional subjects. […] As in Part I of the study, PSG recordings were initiated at each subject's habitual bedtime and continued for 8 hours, and subjects were evaluated on the next day with subjective measures of sleep quality (Leeds Sleep Evaluation Questionnaire) and sleepiness (Karolinska Sleepiness Scale) and with cognitive and motor tasks to assess next-morning residual effects.
All reported adverse experiences were temporary and generally of mild intensity.
The visual disturbances tended to cease with eye opening and to recur with eye closure and were generally not disturbing to the subjects. […] No serious adverse events were reported, and none of the subjects discontinued treatment because of an adverse event. […] 5.3.3.1.3.2 Other Safety Assessments No clinically significant trends in safety laboratory parameters or vital signs were observed. […]

[2] = Exploratory embryofetal development study in rats
[3] = target: cannabinoid 2 receptor (CB2) (Homo sapiens, UniProt P34972); assay: Cannabinoid 2 receptor binding
[4] = tested on: patients with schizophrenia; assay: PN004: safety; format: in vivo, human
Description: The primary efficacy endpoint was the mean change from baseline in the Positive and Negative Syndrome Scale (PANSS) total score at Week 4; secondary efficacy endpoints included responder rates on the PANSS total score at Week 4 and the change from baseline in the Clinical Global Impressions—Severity of Illness Scale at Week 4. Safety was monitored by adverse events, laboratory evaluations, ECGs, Holter monitoring, vital signs, the Simpson-Angus Scale, the Barnes Akathisia Rating Scale, the Abnormal Involuntary Movement Scale, and the Columbia Suicide-Severity Rating scale (C-SSRS).

[5] = tested on: cardiovascular function; assay: Cardiovascular function in anesthetized vagotomized dogs, IV; format: in vivo, dog; conditions: 10 mg/kg IV
[6] = tested on: T1, guinea pig adenosine transporter; assay: Adenosine transporter inhibition; format: biochemical; conditions: 10 μM
T1 construct: other: 10 μM

[7] = single dose 4 mg, N = 12 exposures
[8] = single dose 8 mg, N = 9 exposures
[9] = single dose 12 mg, N = 54 exposures
[10] = Sprague-Dawley rat, oral gavage GD 6 through GD 20
[11] = Study PN004, subjects with schizophrenia, BID Days 1 to 28, CX-8998 N = 86, Olanzapine N = 47

Chain of cannabinoid 2 receptor (CB2) (P34972 whole entry, species assumed): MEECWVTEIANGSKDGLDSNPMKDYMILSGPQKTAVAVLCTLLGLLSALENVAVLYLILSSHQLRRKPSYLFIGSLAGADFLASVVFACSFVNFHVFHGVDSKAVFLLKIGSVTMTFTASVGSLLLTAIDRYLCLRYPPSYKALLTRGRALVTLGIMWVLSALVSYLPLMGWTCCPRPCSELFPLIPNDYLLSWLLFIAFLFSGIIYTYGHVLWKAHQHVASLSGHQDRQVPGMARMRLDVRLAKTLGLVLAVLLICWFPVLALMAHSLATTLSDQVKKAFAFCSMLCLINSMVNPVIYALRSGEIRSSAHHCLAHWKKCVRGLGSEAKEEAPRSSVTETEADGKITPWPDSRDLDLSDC

With `CC(C)c1ccc(CC(=O)N[C@H](C)c2ccc(OCC(F)(F)F)cn2)cc1` [CX-8998] as the compound, how does the “Exposures with increase from baseline of ≥30 and ≤60 msec in QTc” value ([1]; 8 mg) read?
The value was 11.1%.

And the “Exposures with increase from baseline of ≥30 and ≤60 msec in QTc” value ([1]; 12 mg)?
Its value is 5.6%.

And the “At least 1 adverse event” value ([1]; Any Dose, N = 75 exposures)?
The value was 33 (44.0) n (%).

What about the Disorientation ([1]; Any Dose, N = 75 exposures) of the same compound?
Its Disorientation is 3 (4.0) n (%).

What about the Dry mouth ([1]; Any Dose, N = 75 exposures) of the same compound?
The Dry mouth was 2 (2.7) n (%).

What about the “Gastrointestinal Disorders” value ([1]; Any Dose, N = 75 exposures) of the same compound?
The value was 7 (9.3) n (%).

What about the Hallucinations visual ([1]; Any Dose, N = 75 exposures) of the same compound?
Its Hallucinations visual is 4 (5.3) n (%).

What about the Headache ([1]; Any Dose, N = 75 exposures) of the same compound?
Its Headache is 9 (12.0) n (%).

And the Insomnia ([1]; Any Dose, N = 75 exposures)?
The Insomnia was 3 (4.0) n (%).

And the Nausea ([1]; Any Dose, N = 75 exposures)?
Its Nausea is 2 (2.7) n (%).

What about the “Nervous System Disorders” value ([1]; Any Dose, N = 75 exposures) of the same compound?
The value was 15 (20.0) n (%).

And the “Psychiatric Disorders” value ([1]; Any Dose, N = 75 exposures)?
Its value is 17 (22.7) n (%).

What about the Somnolence ([1]; Any Dose, N = 75 exposures) of the same compound?
Its Somnolence is 6 (8.0) n (%).

And the Vivid dreams ([1]; Any Dose, N = 75 exposures)?
Its Vivid dreams is 4 (5.3) n (%).

And the “At least 1 adverse event” value [1, 7]?
Its value is 4 (33.3) n (%).

And the Disorientation [1, 7]?
The Disorientation was 0 n (%).

And the Dry mouth [1, 7]?
Its Dry mouth is 0 n (%).

And the “Gastrointestinal Disorders” value [1, 7]?
Its value is 1 (8.3) n (%).

What about the Hallucinations visual [1, 7] of the same compound?
The Hallucinations visual was 2 (16.7) n (%).

And the Headache [1, 7]?
The Headache was 1 (8.3) n (%).

What about the Insomnia [1, 7] of the same compound?
Its Insomnia is 1 (8.3) n (%).

What about the Nausea [1, 7] of the same compound?
Its Nausea is 1(8.3) n (%).

What about the “Nervous System Disorders” value [1, 7] of the same compound?
The value was 2 (16.7) n (%).

And the “Psychiatric Disorders” value [1, 7]?
The value was 3 (25.0) n (%).

And the Somnolence [1, 7]?
Its Somnolence is 1 (8.3) n (%).

And the Vivid dreams [1, 7]?
Its Vivid dreams is 0 n (%).

And the “At least 1 adverse event” value [1, 8]?
The value was 2 (22.2) n (%).

What about the Disorientation [1, 8] of the same compound?
Its Disorientation is 0 n (%).

And the Dry mouth [1, 8]?
Its Dry mouth is 0 n (%).

And the “Gastrointestinal Disorders” value [1, 8]?
Its value is 1 (11.1) n (%).

What about the Hallucinations visual [1, 8] of the same compound?
Its Hallucinations visual is 0 n (%).

What about the Headache [1, 8] of the same compound?
Its Headache is 0 n (%).

And the Insomnia [1, 8]?
The Insomnia was 0 n (%).

And the Nausea [1, 8]?
The Nausea was 0 n (%).

What about the “Nervous System Disorders” value [1, 8] of the same compound?
The value was 1 (11.1) n (%).

What about the “Psychiatric Disorders” value [1, 8] of the same compound?
The value was 0 n (%).

What about the Somnolence [1, 8] of the same compound?
Its Somnolence is 1 (11.1) n (%).

What about the Vivid dreams [1, 8] of the same compound?
Its Vivid dreams is 0 n (%).

What about the “At least 1 adverse event” value [1, 9] of the same compound?
Its value is 27 (50.0) n (%).

And the Disorientation [1, 9]?
The Disorientation was 3 (5.6) n (%).

And the Dry mouth [1, 9]?
The Dry mouth was 2 (3.7) n (%).

And the “Gastrointestinal Disorders” value [1, 9]?
Its value is 5 (9.3) n (%).

And the Hallucinations visual [1, 9]?
Its Hallucinations visual is 2 (3.7) n (%).

And the Headache [1, 9]?
Its Headache is 8 (14.8) n (%).

And the Insomnia [1, 9]?
The Insomnia was 2 (3.7) n (%).

What about the Nausea [1, 9] of the same compound?
Its Nausea is 1 (1.9) n (%).

What about the “Nervous System Disorders” value [1, 9] of the same compound?
Its value is 12 (22.2) n (%).

And the “Psychiatric Disorders” value [1, 9]?
The value was 14 (25.9) n (%).

And the Somnolence [1, 9]?
The Somnolence was 4 (7.4) n (%).

And the Vivid dreams [1, 9]?
The Vivid dreams was 4 (7.4) n (%).

What about the “dose at which developmental toxicity was observed” value [2, 10] of the same compound?
The value was “observed at ≥100 mg/kg/day”.

And the “dose at which maternal toxicity was excessive” value [2, 10]?
The value was 1000 mg/kg/day.

What about the “dose at which maternal toxicity was observed” value [2, 10] of the same compound?
Its value is ≥ 30 mg/kg/day.

And the “Doses with developmental toxicity (decreased live fetal body weight)” value ([2]; rat, in vivo)?
The value was ≥ 100 mg/kg/day.

And the “Doses with maternal toxicity” value ([2]; rat, in vivo)?
Its value is ≥ 30 mg/kg/day.

And the inhibition at 10 µM ([3]; 10 μM)?
The inhibition at 10 µM was 53%.

What about the IC50 ([3]; calculated) of the same compound?
The IC50 was 5.34 µM.

And the Anxiety [4, 11]?
Its Anxiety is 2 (2.3).

And the “At least 1 adverse event” value [4, 11]?
The value was 41 (47.7).

And the Chronic pharyngitis [4, 11]?
The Chronic pharyngitis was 2 (2.3).

What about the Dizziness [4, 11] of the same compound?
The Dizziness was 2 (2.3).

And the Headache [4, 11]?
The Headache was 2 (2.3).

And the Insomnia [4, 11]?
Its Insomnia is 13 (15.1).

What about the Rhinopharyngitis [4, 11] of the same compound?
The Rhinopharyngitis was 2 (2.3).

And the Schizophrenia [4, 11]?
The Schizophrenia was 3 (3.5).

And the Sinus tachycardia [4, 11]?
Its Sinus tachycardia is 2 (2.3).

And the Somnolence [4, 11]?
The Somnolence was 2 (2.3).

What about the “Subjects who discontinued treatment because of adverse events” value ([4]; in vivo) of the same compound?
The value was 10.5%.

And the “Subjects with dizziness and vertigo” value ([4]; in vivo)?
The value was 4.7%.

What about the “Decrease in mean arterial pressure” value [5] of the same compound?
Its value is 15%.

And the “Increase in PR interval” value [5]?
The value was 7%.

Which Inhibition [6] does the source give for `C=C(C)c1ccc(CC(=O)N[C@H](C)c2ccc(OCC(F)(F)F)cn2)cc1` [M01] here?
The Inhibition was 79%.
